In patent US5556857A, “Disturbance-of-consciousness improving agent” (priority 1991, dated 1996):
Where two headings read alike, the source gives them in different places.

Tests used:
[1] = literature; cited from earlier work
[2] = test system: mouse model of coma following head injury; assay: Evaluation of disturbance-of-consciousness improving effect in a mouse model of coma following head injury; type: in vivo; conditions: Oral, 30 mg/kg
[3] = target: sigma receptor; assay: Binding affinity for the sigma receptor ([3H]-DTG binding test); design: species or system Wistar strain male rat; conditions: [3H]-DTG 3 nM, rat whole brain membrane, 25° C., 60 minutes; ± SED; read-out: Inhibitory activity IC50
Protocol: Binding affinity for the sigma receptor
A membrane fraction was prepared and a [^3 H]-1,3-di[2-tolyl]guanidine (DTG) binding test was performed, both by the method of Wettstein et al. [Wettstein, J. F., Romman, F. J., Rocher, M. N. and Junien, J. L., Psychopharmacology, 104, 157-163 (1991)]. Thus, a Wistar strain male rat was decapitated and the whole brain was excised and homogenized in 30 volumes of ice-cooled 50 mM Tris hydrochloride buffer (pH 7.4). The homogenate was then centrifuged at 4° C. and 50,000 g for 15 minutes. The sediment obtained was suspended in one volume of the same buffer as mentioned above and, after 45 minutes of incubation at 37° C., the suspension was centrifuged again. The sediment obtained was suspended in one volume of the same buffer and the suspension was stored frozen at -80° C. until use.
The binding experiment was performed as follows. […]
The filter was transferred to a vial and after addition of 5 ml of a liquid scintillation cocktail (Aquasol 2), the vial was allowed to stand in the dark for a predetermined time. The radioactivity was then measured using a scintillation counter. The amount of specific binding was determined by subtracting the binding amount in the presence of 10 μM haloperidol from the total binding amount. The IC50 values were calculated by computer analysis using the nonlinear least squares method.

[4] = literature (Brain and Nerve, 39:983-990, 1987); cited from earlier work
[5] = test system: sigma receptor; assay: Antagonistic experiment with sigma receptor antagonists on the disturbance-of-consciousness improving effect; type: in vivo; conditions: 10 mg/kg, alone
Protocol: Antagonistic experiment with sigma receptor antagonists
Whether the improving effect of sigma receptor agonists on impaired consciousness is due to their effect on specific receptors was investigated using test compounds 14 and 15 which are sigma receptor antagonists. […] Similarly, the disturbance-of-consciousness improving effect of test compounds 10 and 12 was inhibited by 30 mg of another sigma receptor antagonist test compound 15.

[6] = test system: sigma receptors; conditions: cited from earlier work

For `CC(=O)OCC[N+](C)(C)C` [acetylcholine], the side effects [1] is given as “serious side effects”.
For `COc1cccc(N2CCN(CCCN3C(=O)CCc4c(Cl)cccc43)CC2)c1` [Example 2], the “RR time (time to recovery of righting reflex)” value [2] was 28 % of control, the “SM time (time to recovery of spontaneous mobility)” value [2] was 28 % of control and the IC50 [3] was 130 ± 16 nM.
For `CC[C@@H](CO)NC(=O)[C@@H]1C=C2c3cccc4c3c(cn4C)C[C@H]2N(C)C1` [methysergide], the “effect on impaired consciousness” value [4] is given as “improves impaired consciousness”.
In the case of `CNC(=O)Oc1ccc2c(c1)[C@]1(C)CCN(C)[C@@H]1N2C` [physostigmine], the “effect on impaired consciousness” value [4] is listed as “effective in improving disturbances of consciousness at low non-toxic doses”.
For `CN[C@@H](C)Cc1ccccc1` [methamphetamine], the “effect on impaired consciousness” value [4] is given as “improves impaired consciousness” and the side effects [1] is given as “may produce an addictive behavior as well as schizophrenic responses such as hallucinations and delusion”.
For `COc1cccc2c1CCC(=O)N2CCCN1CCN(c2cccc(Cl)c2)CC1.Cl` [Test compound 1, 1-{3-[4-(3-Chlorophenyl)-1-piperazinyl]propyl}-5-methoxy-3,4-dihydrocarbostyril hydrochloride], the RR time [5] was 32 % control, the SM time [5] was 38 % control and the “RR time (time to recovery of righting reflex)” value [2] was 20 % of control. The “SM time (time to recovery of spontaneous mobility)” value [2] was 20 % of control and the IC50 [3] was 340 ± 110 nM.
For `c1ccc(C2(N3CCCCC3)CCCCC2)cc1` [phencyclidine], the “affinity for sigma receptors” value ([6]; literature) is listed as “having an affinity for sigma receptors” and the side effects [1] is listed as “induces schizophrenic responses such as hallucinations and delusion”.
For `O=C(CCCN1CCC(O)(c2ccc(Cl)cc2)CC1)c1ccc(F)cc1` [haloperidol], the “affinity for sigma receptors” value [6] is given as “have affinities for these receptors”, the “effect on impaired consciousness” value [4] is given as “delays recovery from coma” and the side effects [1] is given as “dystonia”.
